Laboratory results published in the supplement of paper PMC10307832.

Assays:
Assay in all cases: relative viability (nuclei count vs DMSO), 5 days (fraction); higher = more cells survive
[1] = compound: CCC1=CN=CN=C1N2CCN(CC2)CC3=NC4=C(N3)C=C(C=C4)C(F)(F)F + Cc1cc(Nc2cc(N3CCN(C)CC3)nc(Sc3ccc(NC(=O)C4CC4)cc3)n2)n[nH]1 [Tozasertib] (partner 0.1 µM)
In short: (§1)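 Dosing by pin tool came one day after lung cancer cell lines were seeded in 1536-well plates, using either one drug or a fixed anchor-drug dose plus five library-drug doses (not always all listed) in √10 steps. After 5 days, nuclei were counted on 4× images. Relative viability is treated-well nuclei count divided by vehicle-well nuclei count, and values are medians of duplicate plates.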

Mirin + Decitabine = compound: N=C1NC(=O)/C(=C/c2ccc(O)cc2)S1 [Mirin] + Nc1ncn([C@H]2C[C@H](O)[C@@H](CO)O2)c(=O)n1 [Decitabine] (partner 2 µM)
In short: as §1

[2] = compound: CCn1c(-c2nonc2N)nc2cnc(Oc3cccc(NC(=O)c4ccc(OCCN5CCOCC5)cc4)c3)cc21 + COc1cccc2cc(-c3nc([C@H]4CC[C@H](C(=O)O)CC4)n4ncnc(N)c34)[nH]c12 [OSI-027] (partner 0.5 µM)
In short: as §1

Mirin + Linsitinib = compound: N=C1NC(=O)/C(=C/c2ccc(O)cc2)S1 [Mirin] + C[C@]1(O)C[C@@H](c2nc(-c3ccc4ccc(-c5ccccc5)nc4c3)c3c(N)nccn32)C1 [Linsitinib] (partner 1 µM)
In short: as §1

Cell Line	relative viability ([1]; first compound 0.04 µM)	relative viability ([1]; first compound 0.1265 µM)	relative viability ([1]; first compound 0.4 µM)	relative viability ([1]; first compound 1.265 µM)	relative viability ([1]; first compound 4 µM)	relative viability (Mirin + Decitabine; first compound 0.25 µM)	relative viability (Mirin + Decitabine; first compound 0.7906 µM)	relative viability (Mirin + Decitabine; first compound 2.5 µM)	relative viability (Mirin + Decitabine; first compound 7.906 µM)	relative viability (Mirin + Decitabine; first compound 25 µM)	relative viability ([2]; first compound 0.04 µM)	relative viability ([2]; first compound 0.1265 µM)	relative viability ([2]; first compound 0.4 µM)	relative viability ([2]; first compound 1.265 µM)	relative viability ([2]; first compound 4 µM)	relative viability (Mirin + Linsitinib; first compound 0.25 µM)	relative viability (Mirin + Linsitinib; first compound 2.5 µM)	relative viability (Mirin + Linsitinib; first compound 7.906 µM)	relative viability (Mirin + Linsitinib; first compound 25 µM)	relative viability (Mirin + Linsitinib; first compound 0.7906 µM)
SW 900	0.538	0.585	0.497	0.548	0.523	0.326	0.413	0.438	0.414	0.384	0.553	0.557	0.421	0.559	0.578	–	–	–	–	–
NCI-H1944	0.269	0.249	0.212	0.218	0.223	0.426	0.471	0.489	0.425	0.436	0.413	0.397	0.236	0.214	0.236	1.11	1.25	1.05	0.752	–
NCI-H838	0.278	0.253	0.306	0.24	0.268	0.432	0.424	0.517	0.424	0.361	0.338	0.294	0.228	0.242	0.194	1.01	1.12	1.1	0.761	1.14
NCI-H1650	0.482	0.471	0.273	–	0.331	0.479	0.385	0.403	0.31	0.364	0.666	0.678	0.551	0.535	0.656	–	–	–	–	–
HCC-827	0.441	0.409	0.397	–	0.435	0.17	0.262	0.36	0.308	0.351	0.961	0.855	0.78	0.707	0.756	0.959	0.949	0.935	1.18	0.972
HCC-366	0.138	0.148	0.131	0.143	0.0757	0.342	0.315	0.325	0.322	0.374	1.21	0.939	0.203	0.0538	0.0491	0.677	0.903	0.644	0.316	0.468
HARA	0.106	0.108	0.0892	–	0.0831	0.768	–	0.644	0.653	0.442	0.533	0.38	0.141	0.148	0.102	0.935	0.988	1.02	0.738	0.994
NCI-H441	0.501	0.752	0.506	0.583	0.622	0.251	0.259	0.244	0.217	0.218	0.772	0.721	–	0.513	0.472	0.503	0.599	0.45	0.48	0.493
LXF-289	0.168	0.175	0.206	0.16	0.192	0.347	0.394	0.335	0.347	0.387	0.924	0.758	0.208	0.443	0.361	0.971	1	1.03	1.02	1.09
RERF-LC-KJ	0.517	0.503	0.464	0.459	0.398	0.691	0.753	0.684	0.622	0.561	0.625	0.496	0.38	0.371	0.389	0.962	0.88	0.896	0.913	0.908
CAL-12T	0.367	0.294	0.328	0.429	0.289	–	–	–	–	–	0.857	0.826	0.43	0.603	0.469	0.856	0.825	0.856	0.838	0.726
COR-L 105	0.374	0.34	0.327	0.395	0.379	0.596	0.698	0.744	0.667	0.63	0.976	0.654	0.361	0.374	0.26	0.984	1.13	1.09	0.846	1.02
NCI-H2405	0.779	0.759	0.741	–	0.685	0.72	–	0.691	0.725	0.708	0.763	0.582	0.185	0.326	0.354	0.891	0.963	0.895	0.789	1
NCI-H2228	0.252	0.249	0.22	0.335	0.253	–	–	–	–	–	0.662	0.637	0.386	0.545	0.405	0.702	0.783	0.831	0.553	0.64
PC-14	0.599	0.546	0.55	0.502	0.582	0.2	0.24	0.232	0.225	0.205	0.796	0.693	0.586	0.715	0.685	0.929	1.03	0.97	1.08	0.959
NCI-H2087	0.26	0.243	0.221	0.182	0.146	0.245	0.215	0.286	0.24	0.208	0.824	0.719	0.418	0.535	0.551	0.992	0.915	1.23	0.841	1.11
A549	–	–	–	–	–	0.311	0.298	0.278	0.305	0.301	–	–	–	–	–	0.508	0.544	0.503	0.511	0.58
NCI-H2342	0.467	0.428	0.571	0.333	0.398	0.77	0.775	0.684	–	0.633	0.716	0.696	0.535	0.487	0.577	–	–	–	–	–

Cell Line	relative viability ([1]; first compound 0.04 µM)	relative viability ([1]; first compound 0.1265 µM)	relative viability ([1]; first compound 0.4 µM)	relative viability ([1]; first compound 1.265 µM)	relative viability ([1]; first compound 4 µM)	relative viability (Mirin + Decitabine; first compound 0.25 µM)	relative viability (Mirin + Decitabine; first compound 0.7906 µM)	relative viability (Mirin + Decitabine; first compound 2.5 µM)	relative viability (Mirin + Decitabine; first compound 7.906 µM)	relative viability (Mirin + Decitabine; first compound 25 µM)	relative viability ([2]; first compound 0.04 µM)	relative viability ([2]; first compound 0.1265 µM)	relative viability ([2]; first compound 0.4 µM)	relative viability ([2]; first compound 1.265 µM)	relative viability ([2]; first compound 4 µM)	relative viability (Mirin + Linsitinib; first compound 0.25 µM)	relative viability (Mirin + Linsitinib; first compound 2.5 µM)	relative viability (Mirin + Linsitinib; first compound 7.906 µM)	relative viability (Mirin + Linsitinib; first compound 25 µM)	relative viability (Mirin + Linsitinib; first compound 0.7906 µM)
NCI-H1623	0.368	0.422	0.38	0.423	0.425	–	–	–	–	–	0.513	0.488	0.351	0.43	0.542	–	–	–	–	–
SW 1573	0.205	0.214	0.181	0.153	0.203	0.605	0.61	0.482	0.412	0.247	0.835	0.594	0.299	0.326	0.237	0.815	0.79	0.731	0.648	0.728
NCI-H2085	0.815	0.71	0.794	0.698	0.633	0.562	0.537	0.546	0.553	0.604	1.02	0.679	0.602	0.664	0.551	0.943	0.898	0.819	0.882	1.01
NCI-H520	0.423	0.432	0.403	–	0.452	0.531	0.563	0.494	0.374	0.479	0.354	0.36	0.279	0.332	0.224	0.969	0.946	0.803	0.638	0.921
Calu-6	–	–	–	–	–	–	–	–	–	–	–	–	–	–	–	0.914	0.903	0.856	0.88	0.908
SK-LU-1	0.326	0.334	0.362	0.335	0.274	0.713	0.618	0.8	0.494	0.509	0.359	0.322	0.216	0.199	0.22	1.14	1.17	0.74	0.566	1.15
LCLC-103H	0.536	0.504	0.488	0.463	0.398	0.692	0.759	0.736	0.797	0.871	0.522	0.448	0.231	0.312	0.323	1.12	1.08	1.22	1.13	1.11
NCI-H1792	–	–	–	–	–	0.5	0.504	0.665	0.516	0.573	0.862	0.513	–	0.596	0.7	0.597	0.617	0.505	0.589	0.592
NCI-H1563	–	–	–	–	–	–	–	–	–	–	0.697	0.705	0.576	0.724	0.644	1.16	1.19	1.18	1.19	1.32
NCI-H522	0.59	0.591	0.467	0.518	0.499	0.576	0.611	0.668	0.654	0.524	0.742	0.818	0.642	0.55	0.587	–	–	–	–	–
NCI-H1299	–	–	–	–	–	–	–	–	–	–	–	–	–	–	–	0.984	0.978	0.879	1.2	0.966
ChaGo-K-1	0.206	0.256	0.233	0.195	0.224	0.412	0.476	0.545	0.516	0.434	0.679	0.521	0.313	0.393	0.307	–	–	–	–	–
NCI-H1648	0.538	0.429	–	0.362	0.345	0.559	–	0.51	0.525	0.418	0.258	0.393	0.276	0.314	0.327	–	–	–	–	–
EBC-1	–	–	–	–	–	–	–	–	–	–	–	–	–	–	–	1.06	0.872	0.875	0.974	1.07
IA-LM	–	–	–	–	–	–	–	–	–	–	–	–	–	–	–	0.754	0.789	–	0.87	0.584
NCI-H1703	–	–	–	–	–	–	–	–	–	–	–	–	–	–	–	0.797	0.967	–	0.916	0.353
NCI-H2170	0.719	0.74	0.648	0.662	0.643	0.462	0.483	0.45	0.415	0.411	0.708	0.703	0.641	0.555	0.555	–	–	–	–	–
